{"source": "ChEMBL document CHEMBL2074021", "about": "“Nuclear receptor response elements mediate induction of intestinal MDR1 by rifampin” (J Biol Chem, 2001)", "biological_target": "ATP-dependent translocase ABCB1 (Homo sapiens, UniProt P08183)", "sequence (P08183 whole entry)": "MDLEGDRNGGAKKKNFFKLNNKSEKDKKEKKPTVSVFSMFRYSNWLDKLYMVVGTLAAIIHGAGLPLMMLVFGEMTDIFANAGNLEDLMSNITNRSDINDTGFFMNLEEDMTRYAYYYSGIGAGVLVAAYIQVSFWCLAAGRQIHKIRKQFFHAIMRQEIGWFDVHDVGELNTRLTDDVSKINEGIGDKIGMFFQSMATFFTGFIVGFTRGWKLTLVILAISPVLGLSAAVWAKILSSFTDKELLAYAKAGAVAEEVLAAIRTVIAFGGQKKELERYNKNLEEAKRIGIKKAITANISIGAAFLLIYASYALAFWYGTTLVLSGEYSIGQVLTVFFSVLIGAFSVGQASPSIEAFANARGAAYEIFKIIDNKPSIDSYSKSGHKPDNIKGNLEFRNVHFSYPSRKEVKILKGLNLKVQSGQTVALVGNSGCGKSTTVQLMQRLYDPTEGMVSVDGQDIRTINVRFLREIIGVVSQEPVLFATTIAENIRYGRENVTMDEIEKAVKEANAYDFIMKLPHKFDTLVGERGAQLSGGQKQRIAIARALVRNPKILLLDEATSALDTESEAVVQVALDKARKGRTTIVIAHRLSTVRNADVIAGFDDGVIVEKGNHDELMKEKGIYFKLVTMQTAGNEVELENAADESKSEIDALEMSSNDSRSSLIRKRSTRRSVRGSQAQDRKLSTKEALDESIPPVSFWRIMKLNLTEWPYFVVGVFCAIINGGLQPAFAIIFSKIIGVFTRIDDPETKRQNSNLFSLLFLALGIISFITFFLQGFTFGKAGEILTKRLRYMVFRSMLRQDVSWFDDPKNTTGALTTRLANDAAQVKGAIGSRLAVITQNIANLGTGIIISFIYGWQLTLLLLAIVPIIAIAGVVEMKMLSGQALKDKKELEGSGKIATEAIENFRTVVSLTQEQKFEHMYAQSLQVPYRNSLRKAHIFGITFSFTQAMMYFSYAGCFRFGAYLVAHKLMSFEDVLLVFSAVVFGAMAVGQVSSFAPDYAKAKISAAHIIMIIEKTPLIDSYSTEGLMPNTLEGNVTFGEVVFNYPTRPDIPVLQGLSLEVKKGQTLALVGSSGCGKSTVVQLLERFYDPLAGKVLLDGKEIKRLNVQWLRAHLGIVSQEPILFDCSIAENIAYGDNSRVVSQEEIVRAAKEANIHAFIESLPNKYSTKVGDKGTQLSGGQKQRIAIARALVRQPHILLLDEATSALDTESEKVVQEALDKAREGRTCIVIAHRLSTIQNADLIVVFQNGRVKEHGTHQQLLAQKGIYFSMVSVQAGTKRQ", "assay": "TP_TRANSPORTER: Northern blot from LS174T cell", "assay_type": "functional, cell-based", "data": [{"compound": "CO[C@H]1/C=C/O[C@@]2(C)Oc3c(C)c(O)c4c(O)c(c(/C=N/N5CCN(C)CC5)c(O)c4c3C2=O)NC(=O)/C(C)=C\\C=C\\[C@H](C)[C@H](O)[C@@H](C)[C@@H](O)[C@@H](C)[C@H](OC(C)=O)[C@@H]1C", "note": "[RIFAMPIN]", "values": [{"measurement": "Activity", "value": "inducer [+]"}]}, {"compound": "COC(=O)C1=C(C)NC(C)=C(C(=O)OC)C1c1ccccc1[N+](=O)[O-]", "note": "[NIFEDIPINE]", "values": [{"measurement": "Activity", "value": "inducer [+]"}]}, {"compound": "Clc1ccccc1C(c1ccccc1)(c1ccccc1)n1ccnc1", "note": "[CLOTRIMAZOLE]", "values": [{"measurement": "Activity", "value": "inducer [+]"}]}, {"compound": "C[C@]12C[C@H](O)[C@H]3[C@@H](CCC4=CC(=O)CC[C@@]43C)[C@@H]1CC[C@@H]2C(=O)CO", "note": "[CORTICOSTERONE]", "values": [{"measurement": "Activity", "value": "inducer [+]"}]}, {"compound": "COC(=O)[C@H]1[C@H]2C[C@@H]3c4[nH]c5cc(OC)ccc5c4CCN3C[C@H]2C[C@@H](OC(=O)c2cc(OC)c(OC)c(OC)c2)[C@@H]1OC", "note": "[RESERPINE]", "values": [{"measurement": "Activity", "value": "inducer [+]"}]}, {"compound": "CC#C[C@]1(O)CC[C@H]2[C@@H]3CCC4=CC(=O)CCC4=C3[C@@H](c3ccc(N(C)C)cc3)C[C@@]21C", "note": "[MIFEPRISTONE]", "values": [{"measurement": "Activity", "value": "inducer [+]"}]}, {"compound": "NC(=O)N1c2ccccc2C=Cc2ccccc21", "note": "[CARBAMAZEPINE]", "values": [{"measurement": "Activity", "value": "inducer [+]"}]}, {"compound": "CC(=O)[C@H]1[C@H](C#N)C[C@H]2[C@@H]3CC=C4C[C@@H](O)CC[C@]4(C)[C@H]3CC[C@@]21C", "note": "[PREGNENOLONE CARBONITRILE]", "values": [{"measurement": "Activity", "value": "inducer [+]"}]}, {"compound": "C[C@@H]1C[C@H]2[C@@H]3CCC4=CC(=O)C=C[C@]4(C)[C@@]3(F)[C@@H](O)C[C@]2(C)[C@@]1(O)C(=O)CO", "note": "[DEXAMETHASONE]", "values": [{"measurement": "Activity", "value": "inducer [+]"}]}, {"compound": "CC(=O)[C@H]1CC[C@H]2[C@@H]3CC[C@@H]4CC(=O)CC[C@]4(C)[C@H]3CC[C@]12C", "values": [{"measurement": "Activity", "value": "inducer [+]"}]}]}
